According to patent publication US20250352541A1, “THERAPEUTIC FOR CANCER REFRACTORY TO IMMUNE CHECKPOINT INHIBITOR” (Sumitomo Pharma Co., Ltd., priority 2022, published 2025):
pIC50: −log10 of the molar value.

Tests used:
CHK1 = CHK1 (Homo sapiens (Human), UniProt O14757); test: CHK1 inhibitory activity test (IMAP TR-FRET)
hERG current = hERG current (Homo sapiens (Human), UniProt Q12809); test: hERG current blocking test; conditions: for hERG/CHK1: IC50 of hERG divided by IC50 of CHK1 inhibition; for pIC50: read-out: hERG inhibition IC50, hERG expressing CHO cells
CYP3A4 = CYP3A4 (Homo sapiens (Human), UniProt P08684); test: CYP3A4 MBI and enzyme inactivation clearance evaluation; format: in vitro ADME; conditions: for Factor of change in IC50 value: human liver microsome, pre-incubation in the presence of NADPH
Protocol: The effect and mode of inhibition of the test compound on CYP3A4 were evaluated using a human liver microsome as an enzyme source and midazolam or testosterone as a substrate. […] The IC50 value was calculated from a concentration plot.

ES-2 cells = test: Cell growth suppression experiment; format: cell-based
Protocol: ES-2 cells were obtained from the American Type Culture Collection (ATCC). These cells were cultured at 37° C. in the presence of 5% CO2 in a 10% fetal bovine serum, 1% penicillin/streptomycin containing McCoy's 5a medium.
500 cells were seeded for each well in a 384-well plate, and the evaluated compound was added so that the final concentration of DMSO would be 0.1% to culture the cells for 2 days. After completion of the culture, the cell viability rate was calculated using CellTiter-Glo® 3D Reagent (Promega, G968B).
The results of cell growth suppression test on representative compounds of the present disclosure are listed in the following table based on the ranking of I, IT, III, IV, and V (1000 nM<I, 1000 nM>TI>300 nM, 300 nM>III>100 nM, 100 nMV>IV>30 nM, 30 nM>V).

hERG current, sequence (Q12809 whole entry): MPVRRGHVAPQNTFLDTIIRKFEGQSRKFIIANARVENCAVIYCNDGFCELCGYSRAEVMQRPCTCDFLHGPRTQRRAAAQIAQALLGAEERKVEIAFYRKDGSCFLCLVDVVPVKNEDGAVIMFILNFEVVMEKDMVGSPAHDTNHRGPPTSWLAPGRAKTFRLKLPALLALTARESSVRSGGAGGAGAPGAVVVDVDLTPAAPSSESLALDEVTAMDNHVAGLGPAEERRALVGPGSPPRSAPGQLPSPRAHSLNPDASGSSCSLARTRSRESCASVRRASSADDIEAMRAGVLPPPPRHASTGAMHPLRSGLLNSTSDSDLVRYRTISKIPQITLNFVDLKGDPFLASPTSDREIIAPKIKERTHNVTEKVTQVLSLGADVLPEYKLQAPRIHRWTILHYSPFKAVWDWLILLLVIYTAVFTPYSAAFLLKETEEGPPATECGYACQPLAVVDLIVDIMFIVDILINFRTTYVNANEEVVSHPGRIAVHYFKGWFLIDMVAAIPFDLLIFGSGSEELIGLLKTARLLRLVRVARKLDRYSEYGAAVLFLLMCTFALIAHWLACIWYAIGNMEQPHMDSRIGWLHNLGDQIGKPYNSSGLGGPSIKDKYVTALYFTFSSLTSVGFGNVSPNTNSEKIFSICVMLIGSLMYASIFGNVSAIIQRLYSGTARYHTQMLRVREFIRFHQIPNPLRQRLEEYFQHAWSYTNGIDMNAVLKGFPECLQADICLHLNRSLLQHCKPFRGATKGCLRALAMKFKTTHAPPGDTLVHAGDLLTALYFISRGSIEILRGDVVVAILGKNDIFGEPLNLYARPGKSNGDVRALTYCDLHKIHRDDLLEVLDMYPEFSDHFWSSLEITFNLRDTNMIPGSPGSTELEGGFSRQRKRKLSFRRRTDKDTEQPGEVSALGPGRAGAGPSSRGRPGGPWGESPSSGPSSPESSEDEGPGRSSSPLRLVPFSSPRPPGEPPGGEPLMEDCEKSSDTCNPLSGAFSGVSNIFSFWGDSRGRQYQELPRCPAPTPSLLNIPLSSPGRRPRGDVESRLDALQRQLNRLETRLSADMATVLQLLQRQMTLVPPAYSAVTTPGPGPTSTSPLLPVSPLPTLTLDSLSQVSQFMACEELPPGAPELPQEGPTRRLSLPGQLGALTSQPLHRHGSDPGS
CHK1, sequence (O14757 whole entry): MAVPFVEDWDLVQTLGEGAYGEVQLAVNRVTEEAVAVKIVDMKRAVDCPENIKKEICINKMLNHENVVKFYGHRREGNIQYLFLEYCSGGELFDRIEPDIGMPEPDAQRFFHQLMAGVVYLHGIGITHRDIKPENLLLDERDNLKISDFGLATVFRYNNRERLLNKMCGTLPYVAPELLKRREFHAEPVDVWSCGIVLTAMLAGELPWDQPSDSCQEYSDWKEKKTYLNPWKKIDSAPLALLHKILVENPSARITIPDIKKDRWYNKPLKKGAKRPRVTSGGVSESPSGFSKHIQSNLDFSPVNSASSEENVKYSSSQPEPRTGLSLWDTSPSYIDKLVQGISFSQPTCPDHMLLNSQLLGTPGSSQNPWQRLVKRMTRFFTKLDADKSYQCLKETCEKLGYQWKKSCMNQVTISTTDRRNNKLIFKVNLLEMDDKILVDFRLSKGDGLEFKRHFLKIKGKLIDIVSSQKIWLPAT
CYP3A4, sequence (P08684 whole entry): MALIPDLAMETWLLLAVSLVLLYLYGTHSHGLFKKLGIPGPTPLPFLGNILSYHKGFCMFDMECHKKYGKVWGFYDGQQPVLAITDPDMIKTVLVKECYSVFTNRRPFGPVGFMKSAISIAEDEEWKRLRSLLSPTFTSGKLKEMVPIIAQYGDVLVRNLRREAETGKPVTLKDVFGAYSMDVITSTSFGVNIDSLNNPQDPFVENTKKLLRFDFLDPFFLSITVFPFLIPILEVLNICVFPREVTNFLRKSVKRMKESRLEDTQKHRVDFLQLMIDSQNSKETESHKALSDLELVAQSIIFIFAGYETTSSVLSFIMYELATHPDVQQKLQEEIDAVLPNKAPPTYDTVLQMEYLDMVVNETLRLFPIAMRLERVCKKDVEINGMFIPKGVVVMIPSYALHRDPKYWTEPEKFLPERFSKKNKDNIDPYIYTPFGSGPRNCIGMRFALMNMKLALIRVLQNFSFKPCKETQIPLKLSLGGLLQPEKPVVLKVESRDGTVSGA

How did the pIC50 (CHK1) turn out when `COc1cncc(OC[C@@H]2CNCCO2)c1-c1cc(Nc2cnc(C#N)cn2)n[nH]1` (stereo in doubt) [Example 12, 5-[(5-{3-methoxy-5-[(morpholin-2-yl)methoxy]pyridin-4-yl}-1H-pyrazol-3-yl)amino]pyrazine-2-carbonitrile] was run?
Its pIC50 is 9.47.

And the “effect of suppressing CHK1 activity compared with prexasertib” value (CHK1)?
The value was “more potent effect of suppressing CHK1 activity than prexasertib”.

And the hERG/CHK1 (hERG current)?
The hERG/CHK1 was 9118.

And the pIC50 (hERG current)?
Its pIC50 is 5.51.

What does the source list for `COc1cncc(OC[C@H]2CNCCO2)c1-c1cc(Nc2cnc(C#N)cn2)n[nH]1` (stereo in doubt) [Example 13, 5-[(5-{3-methoxy-5-[(morpholin-2-yl)methoxy]pyridin-4-yl}-1H-pyrazol-3-yl)amino]pyrazine-2-carbonitrile]?
pIC50 (CHK1): 9.13; hERG/CHK1 (hERG current): <3649; pIC50 (hERG current): > 5.57

Which results are given for `COc1nccc(OCC2(CO)CNC2)c1-c1cc(Nc2cnc(C#N)cn2)n[nH]1` [Example 8, 5-{[5-(4-{[3-(hydroxymethyl)azetidin-3-yl]methoxy}-2-methoxypyridin-3-yl)-1H-pyrazol-3-yl]amino}pyrazine-2-carbonitrile]?
pIC50 (CHK1): > 10.00; effect of suppressing CHK1 activity compared with prexasertib (CHK1): more potent effect of suppressing CHK1 activity than prexasertib; hERG/CHK1 (hERG current): >1000000; pIC50 (hERG current): < 4.00; Factor of change in IC50 value (CYP3A4): Not Detected

How did the pIC50 (CHK1) turn out when `COc1ccnc(OCCCN)c1-c1cc(Nc2cnc(C(F)(F)F)cn2)n[nH]1` [Example 16, N-{5-[2-(3-aminopropoxy)-4-methoxypyridin-3-yl]-1-H-pyrazol-3-yl}-5-(trifluoromethyl)pyrazin-2-amine] was run?
The pIC50 was 8.52.

And the hERG/CHK1 (hERG current)?
The hERG/CHK1 was <888.

And the pIC50 (hERG current)?
The pIC50 was > 5.57.

`COc1cncc(OC[C@]2(F)CCNC2)c1-c1cc(Nc2cnc(C#N)cn2)n[nH]1` [Example 20, (S)-5-[(5-{3-[(3-fluoropyrrolidin-3-yl)methoxy]-5-methoxypyridin-4-yl}-1H-pyrazol-3-yl)amino]pyrazine-2-carbonitrile] was tested. Which pIC50 (CHK1) did it give?
The pIC50 was 9.47.

What about the “effect of suppressing CHK1 activity compared with prexasertib” value (CHK1) of the same compound?
The value was “more potent effect of suppressing CHK1 activity than prexasertib”.

What about the “cell growth suppression effect compared with prexasertib” value (ES-2 cells) of the same compound?
Its value is “excellent cell growth suppression effect that is equivalent to that of prexasertib”.

What about the hERG/CHK1 (hERG current) of the same compound?
Its hERG/CHK1 is 11176.

And the pIC50 (hERG current)?
The pIC50 was 5.42.

`COc1cncc(OC[C@@]2(F)CCNC2)c1-c1cc(Nc2cnc(C#N)cn2)n[nH]1` [Example 22, (R)-5-[(5-{3-[(3-fluoropyrrolidin-3-yl)methoxy]-5-methoxypyridin-4-yl}-1H-pyrazol-3-yl)amino]pyrazine-2-carbonitrile] was tested. Which pIC50 (CHK1) did it give?
Its pIC50 is 9.62.

What about the “effect of suppressing CHK1 activity compared with prexasertib” value (CHK1) of the same compound?
Its value is “more potent effect of suppressing CHK1 activity than prexasertib”.

And the “cell growth suppression effect compared with prexasertib” value (ES-2 cells)?
The value was “excellent cell growth suppression effect that is equivalent to that of prexasertib”.

And the hERG/CHK1 (hERG current)?
Its hERG/CHK1 is 12500.

And the pIC50 (hERG current)?
Its pIC50 is 5.52.

What does the source list for `COc1cncc(OC[C@@H](F)CN)c1-c1cc(Nc2cnc(C#N)cn2)n[nH]1` [Example 29, 5-[(5-{3-[(2S)-3-amino-2-fluoropropoxy]-5-methoxypyridin-4-yl}-1H-pyrazol-3-yl)amino]pyrazine-2-carbonitrile]?
pIC50 (CHK1): 9.22; inhibition at 0.0001 µM (CHK1; read-out: CHK1 inhibition % at 0.1 nM): < 5%; cell growth suppression effect compared with prexasertib (ES-2 cells): excellent cell growth suppression effect that is equivalent to that of prexasertib; hERG/CHK1 (hERG current): 18667; pIC50 (hERG current): 4.95; Factor of change in IC50 value (CYP3A4): Not Detected

`COc1cncc(OC[C@H](F)CN)c1-c1cc(Nc2cnc(C#N)cn2)n[nH]1` [Example 30, 5-[(5-{3-[(2R)-3-amino-2-fluoropropoxy]-5-methoxypyridin-4-yl}-1H-pyrazol-3-yl)amino]pyrazine-2-carbonitrile] was tested. Which pIC50 (CHK1) did it give?
Its pIC50 is 9.59.

And the “effect of suppressing CHK1 activity compared with prexasertib” value (CHK1)?
The value was “more potent effect of suppressing CHK1 activity than prexasertib”.

And the “cell growth suppression effect compared with prexasertib” value (ES-2 cells)?
Its value is “excellent cell growth suppression effect that is equivalent to that of prexasertib”.

And the hERG/CHK1 (hERG current)?
Its hERG/CHK1 is 40000.

What about the pIC50 (hERG current) of the same compound?
Its pIC50 is 4.98.

What about the “Factor of change in IC50 value” (CYP3A4) of the same compound?
Its value is “Not Detected”.

How did the pIC50 (CHK1) turn out when `CN[C@@H]1CC[C@@H](Oc2cncc(OC)c2-c2cc(Nc3cnc(C#N)cn3)n[nH]2)C1` [Example 35, 5-{[5-(3-methoxy-5-{[(1R,3R)-3-(methylamino)cyclopentyl]oxy}pyridin-4-yl)-1H-pyrazol-3-yl]amino}pyrazine-2-carbonitrile] was run?
Its pIC50 is 9.21.

And the “cell growth suppression effect compared with prexasertib” value (ES-2 cells)?
Its value is “excellent cell growth suppression effect that is equivalent to that of prexasertib”.

How did the pIC50 (CHK1) turn out when `COc1cncc(O[C@H]2C[C@H](N)[C@H]3C[C@H]32)c1-c1cc(Nc2cnc(C#N)cn2)n[nH]1` [Example 36, 5-{[5-(3-{[(1R,2S,4S,5S)-4-aminobicyclo[3.1.0]hexan-2-yl]oxy}-5-methoxypyridin-4-yl)-1H-pyrazol-3-yl]amino}pyrazine-2-carbonitrile] was run?
The pIC50 was 9.14.

What about the “cell growth suppression effect compared with prexasertib” value (ES-2 cells) of the same compound?
Its value is “excellent cell growth suppression effect that is equivalent to that of prexasertib”.

How did the pIC50 (CHK1) turn out when `COc1ccnc(OCC2(CN)CC2)c1-c1cc(Nc2cnc(C#N)cn2)n[nH]1` [Example 37, 5-{[5-(2-{[1-(aminomethyl)cyclopropyl]methoxy}-4-methoxypyridin-3-yl)-1H-pyrazol-3-yl]amino}pyrazine-2-carbonitrile] was run?
Its pIC50 is 9.49.

What about the “effect of suppressing CHK1 activity compared with prexasertib” value (CHK1) of the same compound?
The value was “more potent effect of suppressing CHK1 activity than prexasertib”.

What about the “cell growth suppression effect compared with prexasertib” value (ES-2 cells) of the same compound?
Its value is “excellent cell growth suppression effect that is equivalent to that of prexasertib”.

What about the hERG/CHK1 (hERG current) of the same compound?
Its hERG/CHK1 is <8438.

And the pIC50 (hERG current)?
The pIC50 was > 5.57.

And the “inhibition of CYP3A4 based on MBI” value (CYP3A4)?
Its value is “do not exhibit inhibition of CYP3A4 based on MBI”.

And the “Factor of change in IC50 value” (CYP3A4)?
Its value is “Not Detected”.

`COc1nccc(OCC2(CN)CC2)c1-c1cc(Nc2cnc(C#N)cn2)n[nH]1` [Example 38, 5-{[5-(4-{[1-(aminomethyl)cyclopropyl]methoxy}-2-methoxypyridin-3-yl)-1H-pyrazol-3-yl]amino}pyrazine-2-carbonitrile] was tested. Which pIC50 (CHK1) did it give?
Its pIC50 is 9.15.

And the “cell growth suppression effect compared with prexasertib” value (ES-2 cells)?
The value was “excellent cell growth suppression effect that is equivalent to that of prexasertib”.
